{"source": "patent US11583570B2", "about": "“Use of autoinducer-related pathway in inducing apoptosis and anti-infective therapy” (TSINGHUA UNIVERSITY, priority 2017, dated 2023)", "key": {"TNFR1": {"biological_target": "T1, TNFR1 (Mus musculus, UniProt P25118)", "T1 construct": "To track individual TNFR1 on the cell membrane; endogenous in cells", "T1 sequence (P25118 30-454)": "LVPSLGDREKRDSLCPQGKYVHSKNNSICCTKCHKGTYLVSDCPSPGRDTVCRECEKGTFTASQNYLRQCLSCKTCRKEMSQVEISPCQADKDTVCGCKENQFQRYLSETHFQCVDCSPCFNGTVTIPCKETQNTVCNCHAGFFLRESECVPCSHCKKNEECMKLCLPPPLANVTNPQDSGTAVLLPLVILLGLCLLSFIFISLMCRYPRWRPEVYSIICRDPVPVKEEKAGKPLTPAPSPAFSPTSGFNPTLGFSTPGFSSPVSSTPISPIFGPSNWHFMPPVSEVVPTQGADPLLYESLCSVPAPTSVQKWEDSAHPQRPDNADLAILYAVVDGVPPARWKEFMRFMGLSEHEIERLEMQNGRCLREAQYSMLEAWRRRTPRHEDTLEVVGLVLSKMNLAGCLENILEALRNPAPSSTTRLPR", "experiment": "Quantum dot-based single particle tracking, TNFR1", "type": "cell-based", "experimental": "To track individual TNFR1 on the cell membrane, anti-TNFR1 IgG (was first papain digested to yield a Fab fragment. The Fab was then conjugated with biotin through the unique —SH at its C terminal. To prepare anti TNFR1 Fab QD conjugates, a solution of 0.7 nM anti TNFR1—Fab-biotin in 1 ml of DMEM was added drop-wise to 1 ml of 2 nM QD 605-streptavidin conjugate. Cell monolayers (50% confluent) previously serum starved for 1 hr were treated with 3OC12 HSL or left untreated and incubated with […] of the final anti TNFR1-Fab-QD solution at 25° C. for 2 min. The cells were then washed twice with PBS at 25° C., placed in serum-free medium, and loaded for imaging. For single-FcRγIIA tracking, Fc fragment was obtained by papain digestion of an anti-BSA IgG (Sigma Aldrich). Fc-QD conjugate was produced as described before. Cos-1 cells were transiently transfected with Fcγ RIIA plasmid, 24 hrs later, cells were stimulated with 3OC12 HSL or left untreated and incubated with […] of the final Fc-QD solution at 25° C. for 2 min. Quantum dot-labeled cells were imaged in TIRF mode. The fluorescence was excited at 488 nm and gated by a band-pass filter (575-640, Carl Zeiss). The excitation power was about 2 mW measured after the objective. Movies of 400 frames were acquired for each sample at a full-frame rate of 17 Hz. Individual trajectories were constructed by Utrack written in Matlab. Diffusion coefficient and plot area were calculated by customized programs written with Matlab. For motion pattern determination by MSD-t analysis 5: linear, simple Brownian diffusion; open-up parabolic, directed diffusion; open-down parabolic, restricted diffusion; and near zero, stationary."}, "caspases 8 and 3": {"tested_on": "caspases 8 and 3", "experiment": "Caspase 8 and 3 cleavage in CD4 T cells (Western blot), mouse", "type": "cell-based", "conditions": "mouse (FIG. 2d)"}, "THP-1 cell line": {"tested_on": "THP-1 cell line", "experiment": "Annexin V/PI apoptosis detection, THP-1", "type": "cell-based, human", "conditions": "THP-1", "experimental": "(§1) Cell apoptosis was detected with Annexin V/PI apoptosis detection Kit. Briefly, cells were stimulated with HSLs or left untreated. 6 hrs later, cells were collected and stained with Annexin VFITC and PI for 15 min at RT, then the apoptotic effect was measured by flow cytometry. OT-I or OT-II splenocytes were pulsed with specific peptides or PMA and ionomycin mixture with or without HSLs or TNF α plus cycloheximide. 24 hrs later, cells and supernatants were collected separately. For OT-I activation, cells were stained with CD69 and CD8. For OT-II activation, cells were stained with CD69 and CD4. Cell activation was measured by flow cytometry. All supernatants were detected for IL-2 secretion by ELISA.\nIn order to verify TNFR1-FADD-caspase8-caspase3 pathway inhibitor can block immunocyte apoptosis caused by 3OC12-HSL clinically. The inventors use a clinical version of caspase inhibitor Emricasan as a test. […] To be specific, in a 12 plate, THP-1 cells were cultured with indicated concentrations of 3OC and Emricasan. After 1 hr, cells were collection for flow cytometric analysis of AnnexinV and PI. […] In FIG. 17b, live cell percentage of different treatment were enumerated by flow cytometry. Bar graphs of live cell percentage are depicted by mean±SEM. Then samples prepared as in FIG. 17a and FIG. 17b were used for WB analysis for the activation (cleavage) of Caspase 8 and 3. […]"}, "T cell": {"tested_on": "T cell", "experiment": "Annexin V/PI apoptosis detection, T cells", "type": "cell-based", "conditions": "10 and 20 μM", "experimental": "as §1"}, "thymoma line EL4": {"tested_on": "thymoma line EL4", "experiment": "Annexin V/PI apoptosis detection, EL4", "type": "cell-based", "experimental": "as §1"}, "TNFR1 (1-293) mutant": {"biological_target": "T2, TNFR1 (1-293) mutant (Homo sapiens, UniProt P19438)", "T2 construct": "human TNFR1 (1-293) mutant was amplified from human TNFR1 with specific primers and cloned into peGFP-N1 vector; expressed in transfected cells; host or cells: HeLa cells", "T2 sequence (P19438 30-293)": "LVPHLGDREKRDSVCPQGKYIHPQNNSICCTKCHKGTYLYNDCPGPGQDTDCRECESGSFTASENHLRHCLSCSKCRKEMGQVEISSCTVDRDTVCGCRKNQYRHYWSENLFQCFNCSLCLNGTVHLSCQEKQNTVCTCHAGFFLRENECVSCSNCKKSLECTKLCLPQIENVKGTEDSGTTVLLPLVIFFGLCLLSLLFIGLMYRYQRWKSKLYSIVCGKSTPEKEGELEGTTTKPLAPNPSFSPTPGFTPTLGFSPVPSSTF", "experiment": "Single molecule photo-bleaching step counting (MSFQ), TNFR1 in HELA cells", "type": "cell-based", "conditions": "DD-deleted TNFR1-eGFP", "text": "Then the cells were stimulated with HSLs, TNF α, or left untreated, and washed twice with PBS and fixed with 4% paraformaldehyde before imaging. GFP was excited at 488 nm with a laser power of 5 mW measured after the laser passing through the objective. […] The EM gain of the EMCCD camera was set at 300. Movies of 400 frames were acquired for each sample at a full-frame rate of 10 Hz. For imaging analysis, the background fluorescence was firstly subtracted from the movie acquired from the fixed cells using the rolling ball method in Image J software, and regions of interest on movies were selected manually according to the outline of cells. To analyze the bleaching steps, the fluorescence time courses of each fluorescent spots were first constructed by Image J plugin and bleaching steps were then counted manually."}, "[1]": {"tested_on": "thioglycolate-induced macrophages", "experiment": "Annexin V/PI apoptosis detection, macrophages", "type": "cell-based", "experimental": "as §1"}, "[2]": {"tested_on": "transformed DC line DC2.4", "experiment": "Annexin V/PI apoptosis detection, DC2.4", "type": "cell-based", "experimental": "as §1"}}}
{"smiles": "CCCCCCCCCC(=O)CC(=O)N[C@H]1CCOC1=O", "note": "[3OC12 HSL, N-(3-oxo-dodecanoyl) homoserine lactone]", "values": [{"measurement": "TNFR1 diffusion coefficient", "setting": "TNFR1", "result": "significantly increased"}, {"measurement": "TNFR1 x-y surface area coverage", "setting": "TNFR1", "result": "high x-y surface area coverage"}, {"measurement": "TNFR1 motion pattern", "setting": "TNFR1; MSD analysis", "result": "more likely to fall into the simple mode of motion"}, {"measurement": "caspase 8 and 3 cleavage", "setting": "caspases 8 and 3", "result": "cleaved in a dose and time-dependent manner"}, {"measurement": "sensitivity to 3OC12 HSL", "setting": "THP-1 cell line", "result": "sensitive"}, {"measurement": "T cell death", "setting": "T cell", "result": "significant T cell death"}, {"measurement": "sensitivity to 3OC12 HSL", "setting": "thymoma line EL4", "result": "sensitive"}, {"measurement": "three step bleaching frequency", "setting": "TNFR1 (1-293) mutant; untreated 7.1", "result": "17.0+/−1.3%"}, {"measurement": "one step bleaching frequency", "setting": "TNFR1 (1-293) mutant; untreated 60.0", "result": 47.1, "unit": "%"}, {"measurement": "sensitivity to 3OC12 HSL", "setting": "[1]", "result": "relatively resistant"}, {"measurement": "sensitivity to 3OC12 HSL", "setting": "[2]", "result": "sensitive"}]}
